According to ChEMBL document CHEMBL2390918, “Cinnamides as selective small-molecule inhibitors of a cellular model of breast cancer stem cells” (Bioorg Med Chem Lett, 2013):
pEC50, pIC50, pKi: −log10 of the molar value. ≈ marks a conversion by molar mass, not a printed value.

Assays:
[1] = tested on: IMR-32; assay: Displacement of [I125]Epibatidine from nAChR in human IMR32 cells at 10 uM after 60 mins relative to control; type: cell-based
[2] = target: D(4) dopamine receptor (Homo sapiens) (UniProt P21917); details: CHO-K1, 10 uM
Chain of D(4) dopamine receptor (Homo sapiens) (P21917 whole entry): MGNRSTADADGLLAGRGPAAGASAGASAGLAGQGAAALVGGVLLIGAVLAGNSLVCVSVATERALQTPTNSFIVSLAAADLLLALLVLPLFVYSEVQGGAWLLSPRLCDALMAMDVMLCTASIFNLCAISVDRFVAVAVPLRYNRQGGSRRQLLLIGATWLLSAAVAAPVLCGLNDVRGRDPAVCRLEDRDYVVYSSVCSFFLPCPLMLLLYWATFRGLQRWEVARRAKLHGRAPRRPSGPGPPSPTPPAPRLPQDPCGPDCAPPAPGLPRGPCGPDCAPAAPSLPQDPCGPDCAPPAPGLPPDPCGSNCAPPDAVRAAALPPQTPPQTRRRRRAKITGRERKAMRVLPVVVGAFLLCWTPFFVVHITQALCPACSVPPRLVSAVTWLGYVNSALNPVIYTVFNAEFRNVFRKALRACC

[3] = target: D(2) dopamine receptor (Homo sapiens) (UniProt P14416); details: CHO, 10 uM
[4] = target: Gamma-aminobutyric acid type B receptor subunit 1 (Homo sapiens) (UniProt Q9UBS5); assay: Displacement of [3H]CGP54626 from human recombinant GABAB1A receptor expressed in CHO cells at 10 uM after 3 hrs relative to control; type: cell-based
Chain of Gamma-aminobutyric acid type B receptor subunit 1 (Homo sapiens) (Q9UBS5 whole entry): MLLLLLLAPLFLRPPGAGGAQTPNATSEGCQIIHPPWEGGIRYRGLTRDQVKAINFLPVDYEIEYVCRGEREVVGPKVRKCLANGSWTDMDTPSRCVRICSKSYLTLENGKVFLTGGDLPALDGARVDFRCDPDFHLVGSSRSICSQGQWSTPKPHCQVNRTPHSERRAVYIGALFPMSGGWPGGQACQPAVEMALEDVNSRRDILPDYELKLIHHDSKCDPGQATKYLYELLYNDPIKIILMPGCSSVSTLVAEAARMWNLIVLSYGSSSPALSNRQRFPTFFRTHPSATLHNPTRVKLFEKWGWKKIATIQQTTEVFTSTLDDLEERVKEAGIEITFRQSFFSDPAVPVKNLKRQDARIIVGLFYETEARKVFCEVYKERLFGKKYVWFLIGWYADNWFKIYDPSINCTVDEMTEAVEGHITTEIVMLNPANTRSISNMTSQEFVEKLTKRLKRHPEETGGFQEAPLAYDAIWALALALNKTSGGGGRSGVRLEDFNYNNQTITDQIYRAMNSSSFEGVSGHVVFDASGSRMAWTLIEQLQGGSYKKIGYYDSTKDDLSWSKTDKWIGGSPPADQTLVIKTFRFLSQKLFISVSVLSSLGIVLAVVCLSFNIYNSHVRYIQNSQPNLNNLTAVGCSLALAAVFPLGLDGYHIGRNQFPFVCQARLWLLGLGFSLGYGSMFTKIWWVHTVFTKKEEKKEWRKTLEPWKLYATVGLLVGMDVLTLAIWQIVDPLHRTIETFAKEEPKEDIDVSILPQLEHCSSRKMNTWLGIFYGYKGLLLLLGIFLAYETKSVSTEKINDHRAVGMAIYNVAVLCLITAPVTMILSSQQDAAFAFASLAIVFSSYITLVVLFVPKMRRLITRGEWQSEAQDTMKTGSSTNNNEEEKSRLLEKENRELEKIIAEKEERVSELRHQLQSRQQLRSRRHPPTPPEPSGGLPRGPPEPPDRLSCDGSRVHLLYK

[5] = Chemical stability in DMSO after 48 hrs; type: physicochemical; details: read-out: Stability
[6] = Chemical stability of the compound after 48 hrs in presence of GSH; type: physicochemical; details: read-out: Stability
[7] = Metabolic stability in human plasma after 5 hrs; type: ADME, cell-free; details: read-out: Stability
[8] = Chemical stability of the compound in PBS after 48 hrs at pH 7.4 by UPLC/MS analysis; type: physicochemical; details: read-out: Stability
[9] = Solubility in PBS at 100 uM after 24 hrs at pH 7.4 by UPLC-MS analysis; type: physicochemical
[10] = Plasma protein binding in human; type: ADME, cell-free; details: read-out: PPB (converted)
[11] = Selectivity ratio of EC50 for human HMLE cells expressing shRNA and GFP to EC50 for human CSC-like HMLE cells expressing shRNA and epithelial cadherin; type: ADME, cell-based; details: read-out: Ratio EC50
[12] = Cytotoxicity against human HMLE cells expressing shRNA and GFP after 70 to 74 hrs by Cell Titer Glo assay; type: cell-based
[13] = Cytotoxicity against human CSC-like HMLE cells expressing shRNA and epithelial cadherin after 70 to 74 hrs by Cell Titer Glo assay; type: functional, cell-based
[14] = target: Histamine H3 receptor (Homo sapiens) (UniProt Q9Y5N1); details: CHO-K1, 10 uM
Chain of Histamine H3 receptor (Homo sapiens) (Q9Y5N1 whole entry): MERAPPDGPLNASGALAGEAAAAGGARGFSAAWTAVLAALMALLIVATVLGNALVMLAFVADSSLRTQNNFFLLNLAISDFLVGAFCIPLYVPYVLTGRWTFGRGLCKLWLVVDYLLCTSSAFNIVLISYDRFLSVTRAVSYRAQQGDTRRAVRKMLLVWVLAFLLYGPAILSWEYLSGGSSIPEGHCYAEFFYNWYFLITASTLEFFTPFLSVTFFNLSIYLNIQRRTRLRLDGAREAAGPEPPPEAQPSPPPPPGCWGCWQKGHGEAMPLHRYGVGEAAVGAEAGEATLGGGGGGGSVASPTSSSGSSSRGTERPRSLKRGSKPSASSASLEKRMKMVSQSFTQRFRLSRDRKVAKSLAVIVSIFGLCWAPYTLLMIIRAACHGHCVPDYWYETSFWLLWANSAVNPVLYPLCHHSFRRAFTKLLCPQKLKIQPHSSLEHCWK

[15] = target: Glutamate NMDA receptor; assay: Displacement of [3H]MDL105519 from NMDA receptor glycine binding site in Wistar rat cerebral cortex after 30 mins; type: tissue-based
[16] = target: T1, Glutamate NMDA receptor (Rattus norvegicus) (UniProt P35439+Q00959+Q00960+Q00961+Q62645+Q8VHN2+Q9R1M7); assay: Displacement of [3H]MDL105519 from NMDA receptor glycine binding site in Wistar rat cerebral cortex at 10 uM after 30 mins relative to control; type: tissue-based
[17] = Displacement of [125I]omega-Conotoxin GVIA from N-type calcium channel in Wistar rat frontal brain after 30 mins
[18] = species on record: Rattus norvegicus; assay: Displacement of [125I]omega-Conotoxin GVIA from N-type calcium channel in Wistar rat frontal brain at 10 uM after 30 mins relative to control
[19] = Displacement of [3H]PDBu from phorbol ester receptor in ICR mouse brain after 60 mins
[20] = species on record: Mus musculus; assay: Displacement of [3H]PDBu from phorbol ester receptor in ICR mouse brain at 10 uM after 60 mins relative to control
[21] = target: T1, Glutamate NMDA receptor (Rattus norvegicus); details: Wistar, Cerebral cortex, 10 uM
[22] = target: Muscarinic acetylcholine receptor M1 (Homo sapiens, UniProt P11229); assay: Displacement of [3H]N-methylscopolamine from human recombinant muscarinic M1 receptor expressed in CHOK1 cells after 2 hrs; type: cell-based, CHO-K1
Chain of Muscarinic acetylcholine receptor M1 (P11229 whole entry): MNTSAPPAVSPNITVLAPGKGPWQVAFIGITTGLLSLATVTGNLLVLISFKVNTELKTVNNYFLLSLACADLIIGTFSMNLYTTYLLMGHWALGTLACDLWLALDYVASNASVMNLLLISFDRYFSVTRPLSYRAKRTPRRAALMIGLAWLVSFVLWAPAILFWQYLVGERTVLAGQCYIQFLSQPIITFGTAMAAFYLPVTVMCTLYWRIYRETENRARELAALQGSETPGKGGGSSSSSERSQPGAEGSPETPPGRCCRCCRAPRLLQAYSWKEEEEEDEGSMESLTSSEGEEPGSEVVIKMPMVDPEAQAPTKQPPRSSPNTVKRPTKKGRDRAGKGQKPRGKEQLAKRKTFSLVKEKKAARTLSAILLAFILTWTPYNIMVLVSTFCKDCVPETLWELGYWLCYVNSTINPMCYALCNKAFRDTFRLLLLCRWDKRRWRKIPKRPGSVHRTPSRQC

[23] = target: Muscarinic acetylcholine receptor M1 (Homo sapiens) (UniProt P11229); assay: Displacement of [3H]N-methylscopolamine from human recombinant muscarinic M1 receptor expressed in CHOK1 cells at 10 uM after 2 hrs relative to control; type: cell-based; details: CHO-K1
Chain of Muscarinic acetylcholine receptor M1 (Homo sapiens) (P11229 whole entry): as above

[24] = target: Muscarinic acetylcholine receptor M3 (Homo sapiens) (UniProt P20309); details: CHO-K1, 10 uM
[25] = target: Muscarinic acetylcholine receptor M2 (Homo sapiens) (UniProt P08172); details: CHO-K1, 10 uM
Chain of Muscarinic acetylcholine receptor M2 (Homo sapiens) (P08172 whole entry): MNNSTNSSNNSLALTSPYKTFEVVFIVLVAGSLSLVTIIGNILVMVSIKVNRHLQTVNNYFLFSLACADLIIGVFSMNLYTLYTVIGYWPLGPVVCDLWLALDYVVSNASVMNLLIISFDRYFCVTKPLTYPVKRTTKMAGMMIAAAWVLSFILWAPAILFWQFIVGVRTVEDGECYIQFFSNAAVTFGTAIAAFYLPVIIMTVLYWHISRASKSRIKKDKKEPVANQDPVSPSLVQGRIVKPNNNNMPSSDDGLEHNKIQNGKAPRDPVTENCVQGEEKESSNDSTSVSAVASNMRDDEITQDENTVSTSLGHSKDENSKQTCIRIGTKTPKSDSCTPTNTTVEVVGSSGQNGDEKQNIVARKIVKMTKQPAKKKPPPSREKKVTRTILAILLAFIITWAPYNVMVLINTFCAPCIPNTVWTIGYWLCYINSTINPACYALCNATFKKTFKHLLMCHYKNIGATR

[26] = target: Mu-type opioid receptor (Homo sapiens) (UniProt P35372); details: CHO-K1, 10 uM
Chain of Mu-type opioid receptor (Homo sapiens) (P35372 whole entry): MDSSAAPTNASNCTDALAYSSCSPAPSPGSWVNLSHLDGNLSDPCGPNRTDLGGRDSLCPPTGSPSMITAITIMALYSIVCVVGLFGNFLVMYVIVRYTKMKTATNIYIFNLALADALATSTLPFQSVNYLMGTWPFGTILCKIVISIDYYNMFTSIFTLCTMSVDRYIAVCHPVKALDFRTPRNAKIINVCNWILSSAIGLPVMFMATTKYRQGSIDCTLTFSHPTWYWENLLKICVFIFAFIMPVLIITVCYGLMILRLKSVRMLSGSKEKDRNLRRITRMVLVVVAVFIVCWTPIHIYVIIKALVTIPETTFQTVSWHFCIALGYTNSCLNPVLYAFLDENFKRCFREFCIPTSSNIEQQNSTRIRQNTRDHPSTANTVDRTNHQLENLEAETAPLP

[27] = species on record: Rattus norvegicus; assay: Displacement of [3H]Kainic acid from kainate receptor in Wistar rat brain at 10 uM after 60 mins relative to control
[28] = target: T1, Glutamate NMDA receptor (Rattus norvegicus); details: Wistar, Cerebral cortex, 10 uM; remark: listed apart in the source
[29] = Displacement of [3H]Idazoxan from central-type imidazole receptor 2 imidazoline binding site in Wistar rat cerebral cortex after 30 mins; type: tissue-based
[30] = species on record: Rattus norvegicus; assay: Displacement of [3H]Idazoxan from central-type imidazole receptor 2 imidazoline binding site in Wistar rat cerebral cortex at 10 uM after 30 mins relative to control; type: tissue-based
[31] = target: Cysteinyl leukotriene receptor 1 (Homo sapiens) (UniProt Q9Y271); details: CHO-K1, 10 uM
[32] = target: Adenosine receptor A3 (Homo sapiens) (UniProt P0DMS8); details: CHO-K1, 10 uM
[33] = target: Delta-type opioid receptor (Homo sapiens) (UniProt P41143); details: HEK293, 10 uM
Chain of Delta-type opioid receptor (Homo sapiens) (P41143 whole entry): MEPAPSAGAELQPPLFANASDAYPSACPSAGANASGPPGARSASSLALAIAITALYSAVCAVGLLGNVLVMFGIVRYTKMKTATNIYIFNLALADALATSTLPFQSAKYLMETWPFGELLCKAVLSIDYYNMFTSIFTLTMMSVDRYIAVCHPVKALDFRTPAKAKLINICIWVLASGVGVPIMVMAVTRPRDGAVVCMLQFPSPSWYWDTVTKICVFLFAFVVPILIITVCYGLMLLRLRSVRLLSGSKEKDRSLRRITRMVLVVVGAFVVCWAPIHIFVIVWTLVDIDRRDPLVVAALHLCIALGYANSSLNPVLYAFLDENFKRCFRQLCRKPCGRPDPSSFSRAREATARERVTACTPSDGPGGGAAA

[34] = target: Adenosine receptor A1 (Homo sapiens) (UniProt P30542); details: CHO, 10 uM
[35] = target: Neuropeptide Y receptor type 2 (Homo sapiens, UniProt P49146); assay: Displacement of [125I]Peptide YY from neuropeptide Y receptor type 2 in human KAN-TS cells after 2 hrs; type: cell-based
Chain of Neuropeptide Y receptor type 2 (P49146 whole entry): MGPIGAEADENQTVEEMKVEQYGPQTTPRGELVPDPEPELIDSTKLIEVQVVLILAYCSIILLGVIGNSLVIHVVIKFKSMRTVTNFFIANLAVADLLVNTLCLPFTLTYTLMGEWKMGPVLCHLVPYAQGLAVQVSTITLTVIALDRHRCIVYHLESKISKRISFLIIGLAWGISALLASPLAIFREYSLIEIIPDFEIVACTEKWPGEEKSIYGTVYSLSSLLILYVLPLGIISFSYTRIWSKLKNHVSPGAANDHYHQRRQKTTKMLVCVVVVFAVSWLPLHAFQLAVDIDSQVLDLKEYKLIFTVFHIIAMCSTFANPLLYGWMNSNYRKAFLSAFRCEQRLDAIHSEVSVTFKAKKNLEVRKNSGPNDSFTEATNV

[36] = target: Neuropeptide Y receptor type 2 (Homo sapiens) (UniProt P49146); assay: Displacement of [125I]Peptide-YY from neuropeptide Y receptor type 2 in human KAN-TS cells at 10 uM after 2 hrs relative to control; type: cell-based
Chain of Neuropeptide Y receptor type 2 (Homo sapiens) (P49146 whole entry): as above

[37] = tested on: CHO-K1; assay: Displacement of [125I]2-iodomelatonin from human recombinant melatonin receptor 1 expressed in CHOK1 cells at 10 uM after 3 hrs relative to control; type: cell-based
[38] = target: B1 bradykinin receptor (Homo sapiens) (UniProt P46663); assay: Displacement of [3H](Des-Arg10)-Kallidin from bradykinin B1 receptor in human IMR90 cells at 10 uM after 60 mins relative to control; type: cell-based; details: IMR-90
[39] = target: Histamine H2 receptor (Homo sapiens) (UniProt P25021); assay: Displacement of [125I]Aminopotentidine from human recombinant histamine H2 receptor expressed in CHOK1 cells at 10 uM after 2 hrs relative to control; type: cell-based; details: CHO-K1
Chain of Histamine H2 receptor (Homo sapiens) (P25021 whole entry): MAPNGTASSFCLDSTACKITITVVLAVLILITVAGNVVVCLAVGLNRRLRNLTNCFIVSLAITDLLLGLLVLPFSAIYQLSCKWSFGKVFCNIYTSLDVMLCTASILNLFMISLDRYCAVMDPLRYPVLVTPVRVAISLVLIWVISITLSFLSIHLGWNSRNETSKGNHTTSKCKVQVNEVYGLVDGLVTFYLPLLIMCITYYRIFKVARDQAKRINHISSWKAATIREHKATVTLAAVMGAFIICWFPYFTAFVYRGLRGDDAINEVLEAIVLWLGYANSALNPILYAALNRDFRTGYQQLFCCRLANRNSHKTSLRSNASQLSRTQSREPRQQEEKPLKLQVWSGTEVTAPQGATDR

[40] = Displacement of [3H]Nitrendipine from L-type calcium channel dihydropyridine binding site in Wistar rat cerebral cortex after 90 mins; type: tissue-based
[41] = species on record: Rattus norvegicus; assay: Displacement of [3H]Nitrendipine from L-type calcium channel dihydropyridine binding site in Wistar rat cerebral cortex at 10 uM after 90 mins relative to control; type: tissue-based
[42] = target: B2 bradykinin receptor (Homo sapiens) (UniProt P30411); details: CHEM1, 10 uM
Chain of B2 bradykinin receptor (Homo sapiens) (P30411 whole entry): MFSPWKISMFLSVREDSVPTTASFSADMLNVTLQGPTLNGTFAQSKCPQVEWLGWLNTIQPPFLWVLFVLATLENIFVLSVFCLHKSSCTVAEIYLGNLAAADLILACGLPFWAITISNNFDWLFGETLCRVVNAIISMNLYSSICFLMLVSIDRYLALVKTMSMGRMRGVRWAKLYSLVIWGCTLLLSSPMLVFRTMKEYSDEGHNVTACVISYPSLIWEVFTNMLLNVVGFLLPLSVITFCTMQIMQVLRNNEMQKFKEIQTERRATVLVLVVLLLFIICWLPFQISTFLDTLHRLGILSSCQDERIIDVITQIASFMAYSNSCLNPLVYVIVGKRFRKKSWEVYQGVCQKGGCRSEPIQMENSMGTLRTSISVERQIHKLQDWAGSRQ

**Q.** Which inhibition [1] does the source give for `Clc1ccc(C2CC3CCC2N3)cn1` (stereo not drawn) here?
**A.** 12%

**Q.** Which inhibition [2] does the source give for `O=C(CCCN1CCC2(CC1)C(=O)NCN2c1ccccc1)c1ccc(F)cc1` here?
**A.** -3%

**Q.** And the inhibition [3]?
**A.** -3%

**Q.** Which inhibition [4] does the source give for `C[C@H](NC[C@H](O)CP(=O)(O)CC1CCCCC1)c1ccc(Cl)c(Cl)c1` here?
**A.** 1%

**Q.** For `CCc1ccc(/C=C/C(=O)NC2=NCCS2)cc1`, which remaining at 48 h [5] is on record?
**A.** > 75%

**Q.** And the remaining at 48 h [6]?
**A.** 82%

**Q.** What about the remaining at 5 h [7] of the same compound?
**A.** 97.1%

**Q.** And the remaining at 48 h [8]?
**A.** 75%

**Q.** What about the solubility at 24 h, 100 µM [9] of the same compound?
**A.** 11.5 µM (≈ 2.99 µg/mL)

**Q.** What about the fraction unbound [10] of the same compound?
**A.** 0.034

**Q.** And the selectivity ratio [11]?
**A.** 32

**Q.** And the pEC50 [12]?
**A.** 4.19

**Q.** What about the pEC50 [13] of the same compound?
**A.** 5.70

**Q.** With `C[C@@H](N)Cc1c[nH]cn1` as the compound, how does the inhibition [14] read?
**A.** 6%

**Q.** What does the source list for `O=C(O)/C(=C/c1c(C(=O)O)[nH]c2cc(Cl)cc(Cl)c12)c1ccccc1`?
**A.** pIC50 [15]: 7.66; pKi [15]: 7.68; inhibition [16]: -3%

**Q.** What does the source list for `C[C@@H](O)[C@@H]1NC(=O)[C@H](Cc2ccc(O)cc2)NC(=O)[C@@H]2C[C@@H](O)CN2C(=O)[C@H](CC(N)=O)NC(=O)[C@@H]2CSSC[C@@H]3NC(=O)[C@H](CO)NC(=O)[C@H](CO)NC(=O)CNC(=O)[C@@H]4C[C@@H](O)CN4C(=O)[C@H](CO)NC(=O)[C@H](CCCCN)NC(=O)[C@@H](N)CSSC[C@H](NC(=O)[C@H](CSSC[C@@H](C(=O)N[C@@H](Cc4ccc(O)cc4)C(N)=O)NC(=O)[C@H](CCCNC(=N)N)NC(=O)[C@H](CCCCN)NC1=O)NC(=O)[C@H](CC(N)=O)NC(=O)[C@H](Cc1ccc(O)cc1)NC(=O)[C@H](CO)NC(=O)[C@H]([C@@H](C)O)NC(=O)[C@@H]1C[C@@H](O)CN1C(=O)[C@H](CO)NC3=O)C(=O)N[C@@H](CCCNC(=N)N)C(=O)N[C@@H](CO)C(=O)N2`?
**A.** pIC50 [17]: 10.47; pKi [17]: 10.55; inhibition [18]: 14%

**Q.** With `CCCCCCCCCCCCCC(=O)O[C@@H]1[C@@H](C)[C@@]2(O)[C@@H](C=C(CO)C[C@]3(O)C(=O)C(C)=C[C@@H]23)[C@@H]2C(C)(C)[C@]12OC(C)=O` [PHORBOL MYRISTATE ACETATE] as the compound, how does the pIC50 [19] read?
**A.** 9.10

**Q.** What about the pKi [19] of the same compound?
**A.** 9.23

**Q.** What about the inhibition [20] of the same compound?
**A.** -1%

**Q.** Which inhibition [21] does the source give for `C[C@@]12NC(Cc3ccccc31)c1ccccc12` here?
**A.** 1%

**Q.** With `C[N+]1(C)CCC(OC(=O)C(c2ccccc2)c2ccccc2)CC1` [4-DAMP] as the compound, how does the pIC50 [22] read?
**A.** 8.35

**Q.** What about the inhibition [23] of the same compound?
**A.** 5%

**Q.** And the inhibition [24]?
**A.** -4%

**Q.** And the inhibition [25]?
**A.** -2%

**Q.** Which inhibition [26] does the source give for `C[C@@H](NC(=O)[C@@H](N)Cc1ccc(O)cc1)C(=O)NCC(=O)N(C)[C@@H](Cc1ccccc1)C(=O)NCCO` here?
**A.** 4%

**Q.** What does the source list for `N[C@@H](CCC(=O)O)C(=O)O`?
**A.** inhibition [27]: 0%; inhibition [28]: 10%

**Q.** With `c1ccc2c(c1)OCC(C1=NCCN1)O2` (stereo not drawn) [IDAZOXAN] as the compound, how does the pIC50 [29] read?
**A.** 7.92

**Q.** What about the pKi [29] of the same compound?
**A.** 8.10

**Q.** What about the inhibition [30] of the same compound?
**A.** 11%

**Q.** With `CCCCC/C=C\C\C=C/C=C/C=C/[C@@H](SC[C@H](N)C(=O)NCC(=O)O)[C@@H](O)CCCC(=O)O` as the compound, how does the inhibition [31] read?
**A.** -10%

**Q.** Which inhibition [32] does the source give for `CNC(=O)[C@H]1O[C@@H](n2cnc3c(NCc4cccc(I)c4)ncnc32)[C@H](O)[C@@H]1O` here?
**A.** 22%

**Q.** For `Oc1ccc2c3c1O[C@H]1c4[nH]c5ccccc5c4C[C@@]4(O)[C@@H](C2)N(CC2CC2)CC[C@]314`, which inhibition [33] is on record?
**A.** 18%

**Q.** For `C[C@H](Cc1ccccc1)Nc1ncnc2c1ncn2[C@@H]1O[C@H](CO)[C@@H](O)[C@H]1O`, which inhibition [34] is on record?
**A.** 25%

**Q.** With H-PAEDLARYYSALRHYITRRQRY-NH2 as the compound, how does the pIC50 [35] read?
**A.** 9.68

**Q.** And the pKi [35]?
**A.** 9.92

**Q.** What about the inhibition [36] of the same compound?
**A.** 6%

**Q.** With `COc1ccc2[nH]cc(CCNC(C)=O)c2c1` as the compound, how does the inhibition [37] read?
**A.** 11%

**Q.** With `NCCCC[C@H](N)C(=O)N[C@@H](CCCN=C(N)N)C(=O)N1CCC[C@H]1C(=O)N1CCC[C@H]1C(=O)NCC(=O)N[C@@H](Cc1ccccc1)C(=O)N[C@@H](CO)C(=O)N1CCC[C@H]1C(=O)N[C@@H](Cc1ccccc1)C(=O)O` as the compound, how does the inhibition [38] read?
**A.** 8%

**Q.** Which inhibition [39] does the source give for `C/N=C(/NC#N)NCCSCc1csc(NC(=N)N)n1` here?
**A.** 11%

**Q.** Which results are given for `CCOC(=O)C1=C(C)NC(C)=C(C(=O)OC)C1c1cccc([N+](=O)[O-])c1` (stereo not drawn) [NITRENDIPINE]?
**A.** pIC50 [40]: 9.14; pKi [40]: 9.34; inhibition [41]: -6%

**Q.** Which inhibition [42] does the source give for H-RPPGFSPFR-OH here?
**A.** 4%
